Assays:
Type in all cases: cell-based, human
[1] = test system: HL-60 cells; assay: NeuAz expression by SPAAC with DBCO-Cy5 and flow cytometry, competition with 1c; conditions: 50 μM with 1c 50 μM, 24 h
Procedure: Estimation of NeuAz expression by 1c in the presence of peracetylated ManNAc analogues: Jurkat cells (3.0×10^5 cells/mL in 3.0 mL per well in 6-well plates) were incubated with (i) D, (ii) 1a, 1b, 1c, or 1d alone (50 mM) or (iii) 1a, 1b, or 1d (50 mM) in combination with 1c (50 mM). After 24 h, cells were harvested, washed using FSB, aliquoted to 5.0×10^5 cells per sample, and processed as mentioned above for estimation of NeuAz expression using DBCO-Cy5 ([…]). Experiments using HL-60 cells were performed using the same procedure.
Having confirmed metabolic acceptability in Jurkat cells, the compounds were tested on HL-60 (human acute myeloid leukemia) cells which are a reliable model for neutrophil adhesion. The effect on competitive suppression of NeuAz expression was studied using 1c as a reporter. HL-60 cells were treated with 1c either alone (50 μM) or in combination with ManNAc analogues (50 μM), including the straight chain derivatives, for 24 h followed by DBCO-Cy5 ligation. […] The decreasing ability of linear alkyl moieties (1d-1g), as a function of chain length, for suppression of NeuAz expression is in contrast to the cycloalkyl moieties. […] Similarly, 1a induced a reduction of 40% compared to only a 15% reduction by 1f.

[2] = test system: HL-60 cells; assay: Total and glycoside bound sialic acids by periodate-resorcinol assay; conditions: 100 μM, 48 h
Procedure: Total sialic acids were measured following reported procedures. HL-60 cells (3.0×10^5 cells/mL in 10 mL complete medium in 10 cm diameter Petri dishes) were incubated with D, 1a, 1b, 1c, 1d, 1e, 1f, 1g, 2a, or 2b (100 mM each), along with untreated (U) controls. After 48 h, cells were harvested, washed with PBS (3×5.0 mL; 3000×g, for 2.0 min), aliquoted to 2×10^6 cells per sample and resuspended in PBS (150 mL) in 1.5 mL microcentrifuge tubes. Cells were lyzed by three freeze-thaw cycles and the total lysates were subjected to periodate-resorcinol assay. Briefly, lysates (150 mL) were treated with 0.4 M aqueous periodic acid (6.67 mM) or (2.5 mL) and incubated either on ice for 15 min (for measurement of total sialic acids) or at 37° C. for 1.0 h (for measurement of glycoconjugate bound sialic acids). About 10 mL of reagent cocktail was prepared using 6% w/v of aqueous resorcinol (1.0 mL), 2.5 mM copper (II) sulfate (1.0 mL), 44% of concentrated hydrochloric acid (4.4 mL), and water (3.6 mL). The mixture was then treated with the reagent cocktail (250 mL per sample), boiled at 100° C. for 10 min, rapidly quenched in an ice-bath and treated with tert-butanol (250 mL). The contents were centrifuged and the supernatants were aliquoted (200 mL) into 96-well plates and the absorbance at 630 nm was measured. At least three replicates were prepared for each condition.

[3] = test system: HL-60 cells; assay: Binding of mouse E-selectin-Fc chimera (mCD62E) to cells by flow cytometry; conditions: 50 μM, 72 h
Procedure: Effect of HexNAc analogues on the expression of E-selectin ligands: HL-60 cells (3.0×10^5 cells/mL in 2.5 mL complete medium in 6-well plates) were incubated with D, 1a, 1b, or 1d (50 mM), along with untreated controls. After 72 h, cells were harvested and washed with PBS (3×0.5 mL). Prior to the last wash, cells were counted and aliquoted into 5.0×10^5 cells per sample. Cells were stained with mCD62E-Fc chimera protein (10 mg/mL) in PBS (50 mL) at 4° C. After 1.0 h, cells were washed with PBS (2×0.5 mL) and stained with PEconjugated F(ab′)2 goat anti-human Fc in PBS (50 mL) at 4° C. After 1.0 h, cells were washed with PBS (2×0.5 mL) and resuspended in 0.85% saline (0.2 mL) containing Sytox Red (dilution 1:1000; stock concentration of 5.0 mM). Additionally, control samples of cells treated with only the secondary antibody were prepared. Two replicate samples were analyzed for each condition and each sample was counted twice by flow cytometry as mentioned above.

[4] = test system: HL-60 cells; assay: Anti-CLA (HECA452) antibody binding by flow cytometry; conditions: 50 μM, 24 h
Procedure: Effect of HexNAc analogues on the expression of cutaneous lymphocyte antigen (CLA/HECA452) epitopes: HL-60 cells (3.0×10^5 cells/mL in 2.5 mL complete medium in 6-well plates) were treated with D, 1a, 1b, or 1d (50 mM), including untreated controls. After 24 h cells were harvested, washed in PBS (3×0.5 mL), aliquoted to 5.0×10^5 cells per sample, and incubated with rat anti-human CLA (HECA452) antibody (5.0 mg/mL) in PBS (50 mL) at 4° C. After 1.0 h, cells were washed with PBS (2×0.5 mL) and stained with AlexaFluor488-conjugated anti-rat IgM (10 mg/mL) in PBS (50 mL) at 4° C. After 1.0 h, cells were washed with PBS (2×0.5 mL), resuspended in PBS (0.2 mL) and treated with PI (2.5 mg/mL). Additionally control samples of cells treated with (i) isotype antibody followed by secondary antibody and (ii) only secondary antibody were prepared. Cells were gated on PI-negative population and analyzed by flow cytometry as given above. Two replicate samples were analyzed for each condition and each sample was counted twice by flow cytometry as mentioned above.

[5] = test system: HL-60 cells; assay: Far-western blot of total lysates with biotinylated MAL-II; conditions: HL-60 lysates; 50 μM, 72 h
Procedure: After 72 h, cells were harvested and lyzed in RIPA buffer containing PIC. Protein concentration in the soluble fraction was estimated using Bradford assay, subjected to 10% SDS-PAGE, blotted onto nitrocellulose membranes (constant current 250 mA, 3 h, 4° C.). Membranes were blocked using 2% w/v gelatin (5.0 mL) in 0.1% PBS-T at room temperature. After 1h, membranes were incubated with either bMAL-II (1:2000, stock conc. 1.0 mg/mL) or bSNA (1:5000, stock conc. 2.0 mg/mL) in 0.1% PBS-T (5.0 mL) at room temperature. After 1 h, membranes were washed using 0.1% PBS-T (6×5.0 mL, 5.0 min), followed by incubation with HRPconjugated avidin (1:50000, stock conc. 2.0 mg/mL) in 0.1% PBS-T (5.0 mL). After 30 min, membranes were washed using 0.1% PBS-T (6×5.0 mL, 5.0 min). Blots were developed using enhanced chemiluminescence substrate and photographic films. Blots using anti-β-actin (as mentioned above) were performed in parallel as loading controls. At least two independent replicate experiments were performed.

[6] = test system: HL-60 cells; assay: SNA lectin binding on intact cells by flow cytometry; conditions: 50 μM, 24 h

| SMILES | NeuAz expression with respect to 1c alone (100%) [1] [%] | reduction of NeuAz expression with respect to controls [1] [%] | decrease in glycoside bound sialic acid levels [2] [%] | ratio of total sialic acids to glycoside bound sialic acids vs untreated cells [2] | change in mCD62E binding with respect to untreated cells (in words) [3] | decrease in HECA-452 binding compared to untreated cells [4] [%] | MAL-II epitopes in lectin blot [5] | SNA binding on intact cells compared to untreated cells [6] | increase in mCD62E (E-selectin-Fc) binding with respect to untreated cells [3] [fold] | suppression of NeuAz expression (in words) [1] | increase in glycoside bound sialic acid levels [2] [%] | increase in total sialic acid levels vs untreated cells [2] [fold] | change in HECA-452 binding (in words) [4] |
| --- | --- | --- | --- | --- | --- | --- | --- | --- | --- | --- | --- | --- | --- |
| CC(=O)OC[C@H]1O[C@H](OC(C)=O)[C@@H](NC(=O)C2CC2)[C@@H](OC(C)=O)[C@@H]1OC(C)=O [Compound 1a, 1,3,4,6-tetra-O-acetyl-2-cyclopropanoylamino-2-deoxy-α-D-mannopyranose] | 60 | 40 | ~10 | higher ratios of free sialic acid | no significant change | 40 | slight increase | no significant differences | – | – | – | – | – |
| CC(=O)OC[C@H]1OC(OC(C)=O)[C@@H](NC(=O)C2CCC2)[C@@H](OC(C)=O)[C@@H]1OC(C)=O (stereo partly drawn) [Compound 1b, (3S,4R,5S,6R)-6-(acetoxymethyl)-3-(cyclobutanecarboxamido)tetrahydro-2H-pyran-2,4,5-triyl triacetate] | 55 | 45 | ~10 | higher ratios of free sialic acid | – | 40 | slight increase | no significant differences | 2.3 | – | – | – | – |
| CC(=O)NC1C(OC(C)=O)OC(COC(C)=O)[C@@H](OC(C)=O)[C@@H]1OC(C)=O (stereo partly drawn) [Compound 1d, 1,3,4,6-tetra-O-acetyl-2-acetylamino-2-deoxy-α/β-D-mannopyranose] | 40 | – | – | higher ratios of free sialic acid | no significant change | – | below detection limit | no significant differences | – | Maximum suppression | ~10 | 2.0 | moderate increase |
